Data published in ChEMBL document CHEMBL1201862, “PubChem BioAssay data set” (2004).
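Test compounds were applied to cells in 96-well plates for 48 hours at 5 doses. At the GI50, growth is halved.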 Activity calls are given as the source filed them. Cut-off read from the data, not from the text of the source: active = GI50 up to about 1.1 µM and inactive = higher.

How the values were obtained:
Assay in all cases: NCI anticancer screen, dose series, 48 h
[1] = test system: HOP-92
[2] = test system: UACC-62
[3] = test system: HCC 2998
[4] = test system: CCRF-CEM
[5] = test system: SK-OV-3
[6] = test system: UACC-257
[7] = test system: OVCAR-3
[8] = test system: OVCAR-8
[9] = test system: NCI-H226
[10] = test system: A549
[11] = test system: HT-29
[12] = test system: SNB-75
[13] = test system: IGROV-1
[14] = test system: NCI-H23
[15] = test system: SNB-19
[16] = test system: SW-620
[17] = test system: SN12C
[18] = test system: SK-MEL-28
[19] = test system: A498

Structure (SMILES)	GI50 [1]	GI50 [2]	GI50 [3]	GI50 [4]	GI50 [5]	GI50 [6]	GI50 [7]	GI50 [8]	GI50 [9]	GI50 [10]	GI50 [11]	GI50 [12]	GI50 [13]	GI50 [14]	GI50 [15]	GI50 [16]	GI50 [17]	GI50 [18]	GI50 [19]
Nc1nc(Cl)cc(NCCCCCCNc2cc(Cl)nc(N)n2)n1	25.4 µM (inactive)	12 µM (inactive)	> 100 µM (inactive)	59.6 µM (inactive)	> 100 µM (inactive)	59.6 µM (inactive)	34 µM (inactive)	> 100 µM (inactive)	25.8 µM (inactive)	60.7 µM (inactive)	> 100 µM (inactive)	> 100 µM (inactive)	> 100 µM (inactive)	54.5 µM (inactive)	> 100 µM (inactive)	> 100 µM (inactive)	> 100 µM (inactive)		
O=C(N/N=C/c1ccc(Cl)cc1)c1cc(I)cc(I)c1O	92.3 µM (inactive)			> 100 µM (inactive)	> 100 µM (inactive)	> 100 µM (inactive)	> 100 µM (inactive)	> 100 µM (inactive)	> 100 µM (inactive)	> 100 µM (inactive)	> 100 µM (inactive)	94.2 µM (inactive)	> 100 µM (inactive)	> 100 µM (inactive)	> 100 µM (inactive)	> 100 µM (inactive)	> 100 µM (inactive)	> 100 µM (inactive)	33.3 µM (inactive)
S=C(Nc1ccccc1)N1N=C2c3ccccc3CC[C@H]2[C@@H]1c1ccccc1		2.75 µM (inactive)	> 100 µM (inactive)	2.91 µM (inactive)	2.22 µM (inactive)	3.58 µM (inactive)	1.88 µM (inactive)	10.3 µM (inactive)	4.23 µM (inactive)	4.66 µM (inactive)	2.81 µM (inactive)		4.54 µM (inactive)	5.27 µM (inactive)	9.18 µM (inactive)	2.4 µM (inactive)	37.2 µM (inactive)	8.09 µM (inactive)	11.7 µM (inactive)
O=c1nc2n(cc1/C=C\Br)C1CC(O)C(CO2)O1 (centres undefined)		> 100 µM (inactive)	> 100 µM (inactive)	36.7 µM (inactive)	> 100 µM (inactive)	> 100 µM (inactive)	> 100 µM (inactive)	> 100 µM (inactive)	> 100 µM (inactive)	> 100 µM (inactive)	> 100 µM (inactive)	> 100 µM (inactive)	> 100 µM (inactive)	> 100 µM (inactive)	> 100 µM (inactive)	> 100 µM (inactive)	> 100 µM (inactive)	> 100 µM (inactive)	49.9 µM (inactive)
COc1ccc(-c2nc(Nc3ccccc3)sc2Cc2sc(Nc3ccccc3)nc2-c2ccc(OC)cc2)cc1		> 100 µM (inactive)	> 100 µM (inactive)	36.5 µM (inactive)	> 100 µM (inactive)	> 100 µM (inactive)	17.1 µM (inactive)	> 100 µM (inactive)	> 100 µM (inactive)	> 100 µM (inactive)	70.6 µM (inactive)	> 100 µM (inactive)	> 100 µM (inactive)	37.7 µM (inactive)	> 100 µM (inactive)	67.5 µM (inactive)	27 µM (inactive)	> 100 µM (inactive)	25.2 µM (inactive)
Cc1cc2c(c3c1c1ccccc1n3C)C(=O)c1ccccc1C2=O	16.9 µM (inactive)	> 100 µM (inactive)	> 100 µM (inactive)	> 100 µM (inactive)		> 100 µM (inactive)	> 100 µM (inactive)	> 100 µM (inactive)		> 100 µM (inactive)	> 100 µM (inactive)	> 100 µM (inactive)	45.7 µM (inactive)	48.5 µM (inactive)	> 100 µM (inactive)	> 100 µM (inactive)	> 100 µM (inactive)	> 100 µM (inactive)	
COc1cc2c(cc1OC)C(Cc1c3ccccc3cc3ccccc13)N(C)CC2 (centres undefined)	11.4 µM (inactive)	17.8 µM (inactive)		18.8 µM (inactive)	22.4 µM (inactive)	18.9 µM (inactive)	27.7 µM (inactive)	26.5 µM (inactive)	24.1 µM (inactive)	39.8 µM (inactive)	13.5 µM (inactive)	14.4 µM (inactive)	20.7 µM (inactive)	29 µM (inactive)	22.2 µM (inactive)	27 µM (inactive)	42 µM (inactive)	20.2 µM (inactive)	17.4 µM (inactive)
C#Cc1cc(CN(CC(=O)OC(C)(C)C)CC(=O)OC(C)(C)C)nc(CN(CC(=O)OC(C)(C)C)CC(=O)OC(C)(C)C)c1		4.26 µM (inactive)	4.31 µM (inactive)	2.96 µM (inactive)	6.55 µM (inactive)	2.82 µM (inactive)	3.04 µM (inactive)	5.24 µM (inactive)	0.498 µM (active)	7.85 µM (inactive)	4.4 µM (inactive)	11.6 µM (inactive)	7.66 µM (inactive)	4.74 µM (inactive)	2.74 µM (inactive)	4.81 µM (inactive)	6.75 µM (inactive)	7.5 µM (inactive)	17.8 µM (inactive)
